Values after ≈ are worked out from the molar mass of the structure shown. Where two headings read alike, the source gives them in different places.
Legend:
[1] = system: A. baumannii 1646; experiment: murine model of lethal peritonitis; format: in vivo, mice; conditions: 30 mg kg^-1 intraperitoneal, one hour post challenge, 5 days
Experimental: As a final assessment, we used a murine model of lethal A. baumannii infection to determine the efficacy of quinazolines in vivo. This was performed using frontrunner 5, which had the most promising properties from all of our biological testing. Accordingly, mice were inoculated with a lethal dose of A. baumannii via intraperitoneal injection on the right side of the abdomen. One hour post challenge, mice were treated with an intraperitoneal injection of 2 mg kg^−1 of frontrunner 5 on the left side of the abdomen. As a control, we also performed similar testing using 30 mg kg^−1 of tigecycline, which we already know our test strain to be susceptible to in vitro.
Characteristics of pre-moribund state include: hunched posture, rapid, shallow and/or labored breathing, ruffled fur, lethargy, failure to respond to stimuli, soiled anogenital area, paralysis, paresis, head tilt, circling, vocalizations, non-purposeful movements, and/or were unable to eat or drink. Those mice reaching this state prior to the completion of the 5-day infection period were euthanized. The number of mice surviving between control and treatment groups was compared and analyzed for statistical significance using a log-rank (Mantel-Cox) test.

[2] = system: human red blood cells
Experimental: A hemolysis assay was performed using whole human blood (Bioreclamation), as described previously.^24 Briefly, human red blood cells (hRBCs) were resuspended in 20% v/v 1×HA buffer (4.25 mL 10% NaCl; 1 mL CaCl2) in 50 mL sterile water), before lead compounds were added at 2 μM, 10 μM and 20 μM, in a final volume of 100 μL. Cells were incubated for 15 minutes at 37° C. before being centrifuged at 5,500 g for 1 minute to pellet non-lysed hRBCs. The supernatant was removed, added to a 96-well Microtiter plate and the OD543 read using a BioTek Synergy2 plate reader. The negative control was vehicle only (DMSO), and the positive control was 1% triton X-100.

[3] = system: A. baumannii 1651; experiment: MIC assay, strain 1651; format: cell-based, Acinetobacter baumannii; conditions: Acinetobacter baumannii, strain 1651
Experimental: (§1) MIC and MBC assays were performed in this study as documented by us previously.^17,23,24,25 The A. baumannii strains used are detailed in Table 7.

[4] = system: A. baumannii 1646; experiment: MIC assay, strain 1646; format: cell-based, Acinetobacter baumannii; conditions: Acinetobacter baumannii
Experimental: as §1

[5] = system: A. baumannii 1403; experiment: MIC assay, strain 1403; format: cell-based, Acinetobacter baumannii; conditions: Acinetobacter baumannii, strain 1403
Experimental: as §1

[6] = system: A. baumannii dihydrofolate reductase (DHFR) enzyme; experiment: tetrahydrofolic acid in vitro rescue assay; format: cell-based; conditions: tetrahydrofolic acid 0-225 μM; 24 hours incubation
Experimental: To evaluate the effect quinazolines have on DHFR reduction of dihydrofolic acid, a tetrahydrofolic acid assay was performed as described by us previously.^17 A. baumannii strain 1403 was grown overnight in LB, and then diluted 1:1000 into fresh media. These cultures were then seeded into a sterile 96-well plate with tetrahydrofolic acid added at concentrations ranging from 0 to 225 μM. […] MICs were determined and used to assess whether the addition of tetrahydrofolic acid rescued A. baumannii growth from quinazoline inhibition. Assays were repeated in triplicate, alongside trimethoprim and sulfamethoxazole controls.

[7] = system: A. baumannii 1652; experiment: MIC assay, strain 1652; format: cell-based, Acinetobacter baumannii; conditions: Acinetobacter baumannii, strain 1652
Experimental: as §1

[8] = system: A. baumannii 1649; experiment: MIC assay, strain 1649; format: cell-based, Acinetobacter baumannii; conditions: Acinetobacter baumannii, strain 1649
Experimental: as §1

[9] = system: A. baumannii 1650; experiment: MIC assay, strain 1650; format: cell-based, Acinetobacter baumannii; conditions: Acinetobacter baumannii, strain 1650
Experimental: as §1

[10] = system: A. baumannii 1646; experiment: minimal bactericidal concentration (MBC) assay, strain 1646; format: cell-based, Acinetobacter baumannii
Source text: (§2) Lead quinazolines 4, 5, 26, 29, 27, and 30 were selected to be further evaluated for antimicrobial effects. The first assay utilized was a minimal bactericidal concentration (MBC) assay, to assess whether leads compounds were bacteriostatic or bactericidal. The six lead agents were screened to identify their MBC90 towards each of the six A. baumannii isolates used in the SAR studies (Table 8), however for simplicity only the representative data for isolate 1646 is detailed below (Table 6). […] Further to this, we were able to obtain complete eradication of bacterial growth for these two compounds at 1 μM for 24 and 5 μM for 25.
as §1

[11] = system: A. baumannii 1651; experiment: minimal bactericidal concentration (MBC) assay, strain 1651; format: cell-based; conditions: Acinetobacter baumannii, Table 8, read-out: MBC90 1651
Source text: as §2, §1

[12] = system: A. baumannii 1646 biofilm; experiment: biofilm eradication determination assay, strain 1646; format: cell-based, Acinetobacter baumannii
Experimental: (§3) These assays were performed as described by us previously,^26,24 as follows. Each of the A. baumannii strains were grown overnight in Mueller Hinton Broth (MHB). The next day these were used to seed fresh MHB to an OD600 of 0.5, with 150 μL then added to the wells of a 96 well plate and grown for 24 hours at 37° C. After 24 hours, the planktonic bacteria were carefully removed and fresh MHB was added with increasing concentrations of lead quinazolines. After incubation at 37° C. for 24 hours, planktonic cells were removed and biofilms were washed three times with phosphate buffered saline (PBS). Biofilms were then resuspended in PBS and plated for cell viability on tryptic soy agar. Biofilm recovery was assessed compared to no drug controls, and determined as percent eradication. This was used to determine MBEC90 values (Minimal Biofilm Eradication Concentration), where the viability of cells within the biofilm was reduced by 90%.

[13] = system: A. baumannii 1651 biofilm; experiment: biofilm eradication determination assay, strain 1651; format: cell-based, Acinetobacter baumannii; conditions: 90% biofilm eradication, Table 8
Experimental: as §3

[14] = system: A. baumannii 1649 biofilm; experiment: biofilm eradication determination assay, strain 1649; format: cell-based, Acinetobacter baumannii; conditions: 90% biofilm eradication, Table 8
Experimental: as §3

[15] = system: A. baumannii 1652; experiment: minimal bactericidal concentration (MBC) assay, strain 1652; format: cell-based; conditions: Acinetobacter baumannii, Table 8, read-out: MBC90 1652
Source text: as §2, §1

[16] = system: A. baumannii strain 1403; format: cell-based, Acinetobacter baumannii; conditions: serial passage, 8 days, start 0.5× MIC
Experimental: An important attribute of novel antibiotics is the ability to fend off the development of resistance towards their effects. To assess this capacity, A. baumannii strains were incubated overnight with 0.5× MIC of each of the frontrunners. The next day cells were washed and used to inoculate fresh media that contained a two-fold increase in drug. This was repeated for a total of 8 days, alongside sulfamethoxazole (SMX) and trimethoprim (TMP) controls, both of which target the same pathway as our lead agents (FIG. 2).
In order to test potential resistance towards the quinazolines, a serial passage assay was performed alongside control compounds (Sulfamethoxazole and Trimethoprim), as described by us previously.^24 A. baumannii strain 1403 was grown overnight in LB media at 37° C. The next day cultures were diluted 1:100 in fresh media and seeded into a 96-well plate. Lead quinazolines or control agents were added to respective wells at half MIC concentrations. […] These were then grown overnight, and the procedure repeated for a total of eight days.

[17] = system: A. baumannii 1650; experiment: minimal bactericidal concentration (MBC) assay, strain 1650; format: cell-based; conditions: Acinetobacter baumannii, Table 8, read-out: MBC90 1650
Source text: as §2, §1

[18] = system: A. baumannii 1403 biofilm; experiment: biofilm eradication determination assay, strain 1403; format: cell-based, Acinetobacter baumannii; conditions: 90% biofilm eradication, Table 8
Experimental: as §3

[19] = system: A. baumannii 1403; experiment: minimal bactericidal concentration (MBC) assay, strain 1403; format: cell-based; conditions: Acinetobacter baumannii, Table 8, read-out: MBC90 1403
Source text: as §2, §1

[20] = system: human HepG2 cells; format: cell-based
Experimental: Cytotoxicity assays were performed using human HepG2 cells (human liver epithelial with hepatocellular carcinoma), as described by us previously.^17,24 Cells were cultured in Dulbecco's modified eagle medium (DMEM), supplemented with 10% fetal bovine serum and 1% penicillin-streptomycin for 3 days at 37° C. and 5% CO2. Cells were then diluted to 1×10^5 ml^−1 using fresh DMEM and added to 96 well tissue culture plates at a volume of 100 μL. Plates were incubated for 24 hours at 37° C. and 5% CO2, allowing the cells to adhere to the plastic. […] Plates were then incubated for 48 hours at 37° C. and 5% CO2. After 48 hours the DMEM was removed and 100 μL of new media was added containing MTT (3-(4, 5-dimethylthiazol-2-yl)-2, 5-diphenyltetrazolium bromide), followed by incubation for four hours at 37° C. and 5% CO2. […] Lead compounds were solvated in 100% DMSO for these studies, which served as the negative control. LD50 values were determined for each compound by comparison to vehicle only controls.

[21] = system: A. baumannii 1650 biofilm; experiment: biofilm eradication determination assay, strain 1650; format: cell-based, Acinetobacter baumannii; conditions: 90% biofilm eradication, Table 8
Experimental: as §3

[22] = system: A. baumannii 1652 biofilm; experiment: biofilm eradication determination assay, strain 1652; format: cell-based, Acinetobacter baumannii; conditions: 90% biofilm eradication, Table 8
Experimental: as §3

[23] = system: A. baumannii 1649; experiment: minimal bactericidal concentration (MBC) assay, strain 1649; format: cell-based; conditions: Acinetobacter baumannii, Table 8, read-out: MBC90 1649
Source text: as §2, §1

Compound: CN(C)c1cc(NC(=O)CNC(C)(C)C)c(O)c2c1C[C@H]1C[C@H]3[C@H](N(C)C)C(O)=C(C(N)=O)C(=O)[C@@]3(O)C(O)=C1C2=O [tigecycline, reference compound]
- survival rate of infected animals [1]: 66%

Compound: Triton X-100
- lysis of human red blood cells [2]: 100%

Compound: CNc1nc(NCc2ccccc2)nc2ccc(C(C)C)cc12 [Compound 25, N^2-Benzyl-6-isopropyl-N^4-methylquinazoline-2,4-diamine]
- MIC ([3]; Tables 1, 3, 4, 5 and footnotes, read-out: 1651 MIC): 35 µM (≈ 10.7 µg/mL)
- MIC ([4]; strain 1646, Tables 1, 3, 4, 5 and footnotes, read-out: 1646 MIC): 25 µM (≈ 7.66 µg/mL)
- MIC ([5]; Tables 1, 3, 4, 5 and footnotes, read-out: 1403 MIC): > 50 µM
- THF concentration sufficient to rescue bacterial growth [6]: 10 µM
- MIC ([7]; Tables 1, 3, 4, 5 and footnotes, read-out: 1652 MIC): > 50 µM
- MIC ([8]; Tables 1, 3, 4, 5 and footnotes, read-out: 1649 MIC): 35 µM (≈ 10.7 µg/mL)
- MIC ([9]; Tables 1, 3, 4, 5 and footnotes, read-out: 1650 MIC): > 50 µM
- concentration giving complete eradication of bacterial growth ([10]; isolate 1646): 5 µM

Compound: CNc1nc(NCc2ccccc2)nc2ccc(Br)cc12 [Compound 4, N^2-Benzyl-6-bromo-N^4-methylquinazoline-2,4-diamine]
- MBC [11]: 2.1 µM (≈ 0.721 µg/mL)
- MIC ([3]; Table 2, read-out: 1651 MIC): 8 µM (≈ 2.75 µg/mL)
- MIC ([3]; lead quinazolines, Table 8, read-out: MIC 1651): 5 µM (≈ 1.72 µg/mL)
- MIC ([4]; Table 6, representative data for isolate 1646, read-out: MIC): 0.5 µM (≈ 0.172 µg/mL)
- MIC ([4]; strain 1646, Table 2, read-out: 1646 MIC): 2 µM (≈ 0.686 µg/mL)
- MIC ([4]; strain 1646, lead quinazolines, Table 8, read-out: MIC 1646): 0.5 µM (≈ 0.172 µg/mL)
- MBEC90 ([12]; Table 6, representative data for isolate 1646): 3.3 µM
- reduction in biofilm viability ([12]; at 50 μM, strain 1646): 3.6 log
- MBEC90 1646 ([12]; strain 1646, 90% biofilm eradication, Table 8 and text): 3.3 µM
- MIC ([5]; Table 2, read-out: 1403 MIC): 50 µM (≈ 17.2 µg/mL)
- MIC ([5]; lead quinazolines, Table 8, read-out: MIC 1403): 25 µM (≈ 8.58 µg/mL)
- MBEC90 1651 [13]: 37.34 µM
- MIC ([7]; Table 2, read-out: 1652 MIC): 20 µM (≈ 6.86 µg/mL)
- MIC ([7]; lead quinazolines, Table 8, read-out: MIC 1652): 20 µM (≈ 6.86 µg/mL)
- MBEC90 1649 [14]: 44.33 µM
- MBC [15]: 9.7 µM (≈ 3.33 µg/mL)
- MIC ([8]; Table 2, read-out: 1649 MIC): 12 µM (≈ 4.12 µg/mL)
- MIC ([8]; lead quinazolines, Table 8, read-out: MIC 1649): 11 µM (≈ 3.78 µg/mL)
- increase in MIC over the 8-day test period [16]: 4 fold
- MIC ([9]; Table 2, read-out: 1650 MIC): 15 µM (≈ 5.15 µg/mL)
- MIC ([9]; lead quinazolines, Table 8, read-out: MIC 1650): 12 µM (≈ 4.12 µg/mL)
- MBC [17]: 15 µM (≈ 5.15 µg/mL)
- MBEC90 1403 [18]: 26 µM
- MBC [19]: 22 µM (≈ 7.55 µg/mL)
- HepG2 cell viability ([20]; at 25 μM (highest concentration tested)): 43%
- LD50(HepG2) ([20]; human, 48 h): 23 µM
- MBC ([10]; Acinetobacter baumannii, 1646, strain 1646, Table 8 and text, read-out: MBC90 1646): 0.81 µM (≈ 0.278 µg/mL)
- MBC ([10]; Acinetobacter baumannii, Table 6, representative data for isolate 1646, read-out: MBC90): 0.8 µM (≈ 0.275 µg/mL)
- MBEC90 1650 [21]: 9.61 µM
- MBEC90 1652 [22]: >100 µM
- MBC [23]: 4.7 µM (≈ 1.61 µg/mL)

— patent US10323007B1, “N2N N4-disubstituted quinazoline-2,4-diamines and uses thereof” (University of South Florida, priority 2016, dated 2019)
